Earlier results on one compound are cited in patent US7262212B2, “2,3-dihydro-6-nitroimidazo[2,1-b]oxazoles” (Otsuka Pharmaceutical Co., Ltd., priority 2002, dated 2007).

The subject of the series is multi-drug-resistant Mycobacterium tuberculosis. As to conditions: multi-drug-resistant strain; cited from earlier work.

In the case of `CCC1Cn2cc([N+](=O)[O-])nc2O1` (stereo not shown) [CGI-17341], the bactericidal action result was “has a bactericidal action”.
